Values of other authors, collected in patent publication US10545073B2, “Method and instrument for extracting a component from a sample” (priority 2016, dated 2020).

| log P | Structure (SMILES) |
| --- | --- |
| 3.89 | Fc1ccc([C@@H]2CCNC[C@H]2COc2ccc3c(c2)OCO3)cc1 [Paroxetine] |
| 1.23 | CNC(=C[N+](=O)[O-])NCCSCc1ccc(CN(C)C)o1 [Ranitidine] |
| 0.01 | CC(C)(C)NCC(O)c1ccc(O)c(CO)c1 (stereo not shown) [Salbutamol] |
| 4.81 | CN[C@H]1CC[C@@H](c2ccc(Cl)c(Cl)c2)c2ccccc21 [Sertraline] |
